# Results taken from the supplement of paper PMC10949913.
# How the values were obtained:
# Details in all cases: 48 h
# CU-ACC2 [1] = experiment: area under concentration-response curve (viability) (AUC (a.u.)); higher = less active
# Summary of the method: (§1)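 After 48 h of treatment with 23 nL of each library compound at 11 concentrations, three adrenocortical carcinoma cell lines in 1,536-well plates (500–1,000 cells/well, 5 µL medium) were given CellTiter-Glo for 15 minutes at room temperature. Luminescence was then read and normalised per plate to vehicle and empty-well controls. AC50 and area under the curve were drawn from fitted concentration-response curves of inhibitory or non-responding classes only.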
# NCI-H295R [2] = experiment: as above
# Summary of the method: as §1
# CU-ACC1 [3] = experiment: as above
# Summary of the method: as §1
# CU-ACC2 [4] = experiment: AC50 viability; higher = less potent
# Summary of the method: as §1
# NCI-H295R [5] = experiment: AC50 viability; higher = less potent
# Summary of the method: as §1
# CU-ACC1 [6] = experiment: AC50 viability; higher = less potent
# Summary of the method: as §1
SMILES,area under concentration-response curve (CU-ACC2 [1]),area under concentration-response curve (NCI-H295R [2]),area under concentration-response curve (CU-ACC1 [3]),AC50 viability (CU-ACC2 [4]),AC50 viability (NCI-H295R [5]),AC50 viability (CU-ACC1 [6])
C=CC(=O)Nc1cccc(Oc2nc(Nc3ccc(N4CCN(C)CC4)cc3OC)ncc2Cl)c1,526,502,442,7.42 µM,9.34 µM,8.33 µM
COc1cccc2cc(-c3nc([C@H]4CC[C@H](C(=O)O)CC4)n4ncnc(N)c34)[nH]c12,466,492,454,10.5 µM,5.9 µM,4.17 µM
C=CC(=O)Nc1cc2c(Nc3ccc(F)c(Cl)c3)ncnc2cc1OCCCN1CCOCC1,498,427,443,8.33 µM,14.8 µM,11.8 µM
C#Cc1cccc(Nc2ncnc3cc(OC)c(OCCCCCCC(=O)NO)cc23)c1,450,448,407,2.95 µM,4.68 µM,4.68 µM
Clc1ccc(C2(c3ccc(-c4cn[nH]c4)cc3)CCNCC2)cc1,423,399,419,23.5 µM,18.6 µM,18.6 µM
COc1cc2c(Nc3ccc(Br)cc3F)ncnc2cc1OCC1CCN(C)CC1,418,403,401,16.6 µM,16.6 µM,14.8 µM
Cc1cc(Nc2cc(NC(=O)c3c(Cl)cccc3Cl)ccn2)nc(N)n1,522,439,457,5.9 µM,13.2 µM,11.8 µM
N[S+]([O-])(=O)C1=CC=C(NC/2=C/C(=O)C3=CC=CC=C3C2=O)C=C1,463,403,290,13.2 µM,2.35 µM,0.59 µM
COc1cc(F)ccc1-c1ncnc(Nc2cccc(C[S+](C)(=N)[O-])c2)n1 (stereo unspecified),380,428,388,0.934 µM,4.17 µM,1.86 µM
COc1cc(-c2nn(C3CCC(N4CCN(C(C)=O)CC4)CC3)c3ncnc(N)c23)ccc1NC(=O)c1cc2ccccc2n1C (stereo unspecified),512,460,418,10.5 µM,9.34 µM,8.33 µM
O=C(/C=C\n1cnc(-c2cc(C(F)(F)F)cc(C(F)(F)F)c2)n1)NNc1ccccn1,245,271,273,1.32 µM,10.5 µM,2.35 µM
Nc1ncnc2c1c(-c1cnc3[nH]ccc3c1)nn2C1CCCC1,338,414,395,13.2 µM,5.9 µM,5.9 µM
CC(C)(Cc1ccc2ccccc2c1)NC[C@@H](O)COc1cccc(Cl)c1C#N,530,480,460,7.42 µM,9.34 µM,9.34 µM
C=C1/C(=C\C=C2/CCC[C@]3(C)[C@@H]([C@H](C)/C=C/[C@H](C)C(C)C)CC[C@@H]23)C[C@@H](O)C[C@@H]1O,400,372,381,7.42 µM,7.42 µM,6.61 µM
CC(C)(C)c1cnc(CSc2cnc(NC(=O)C3CCNCC3)s2)o1,352,387,386,1.48 µM,7.42 µM,2.63 µM
NCCCC[C@H](NC(=O)[C@@H](NC(=O)[C@H](Cc1c[nH]c2ccccc12)NC(=O)[C@H](CCCCN)NC(=O)[C@H](CCCCN)NC(=O)[C@H](Cc1c[nH]c2ccccc12)NC(=O)[C@H](Cc1c[nH]c2ccccc12)NC(=O)[C@H](CCCCN)NC(=O)[C@@H](N)CCCCN)C(c1ccccc1)c1ccccc1)C(N)=O,301,310,301,3.72 µM,9.34 µM,10.5 µM
CC(C)(O)CNc1ncc(-c2ccnc(Nc3ccncc3)n2)c(CC2CC2)n1,485,487,442,20.9 µM,18.6 µM,10.5 µM
Cc1cnc(Nc2ccc(CN3CCOCC3)cc2)nc1Nc1cccc([S+](=O)([O-])NC(C)(C)C)c1,509,492,445,11.8 µM,9.34 µM,20.9 µM
CC(C)C[C@H](NC(=O)CNC(=O)c1cc(Cl)ccc1Cl)B(O)O,373,408,329,0.209 µM,0.105 µM,0.166 µM
C=CCNc1c(O)cc2c(O)c1C[C@@H](C)C[C@H](OC)[C@H](O)[C@@H](C)/C=C(/C)[C@H](OC(N)=O)[C@@H](OC)/C=C\C=C(\C)C(=O)N2,335,419,335,0.525 µM,14.8 µM,2.95 µM
CC(C)(O)/C=C\C(=O)[C@](C)(O)[C@H]1[C@H](O)C[C@]2(C)[C@@H]3CC=C4[C@@H](C=C(O)C(=O)C4(C)C)[C@]3(C)C(=O)C[C@@]12C,377,406,316,0.332 µM,5.25 µM,0.372 µM
Fc1cccc(-n2cnc3c(NCc4nc5ccc(F)c(F)c5[nH]4)nc(N4CCOCC4)nc32)c1,371,394,367,0.742 µM,1.05 µM,0.661 µM
Cc1ccc(NC(=O)c2ccc3c(c2)OCCO3)cc1NC(=O)c1ccc2nc(OCCN3CCCC3)ccc2c1,373,398,303,0.456 µM,2.88 µM,6.45 µM
Cc1cc(OCCCc2c3n(c4c(-c5c(C)nn(C)c5C)c(Cl)ccc24)[C@H](C)CN(c2cn(C)c4ccc(C(=O)O)cc24)C3=O)cc(C)c1Cl,570,445,367,16.6 µM,2.95 µM,16.6 µM
Cc1ncc(-c2ccnc(Nc3ccc([S+](C)(=O)[O-])cc3)n2)n1C(C)C,236,307,286,0.332 µM,2.95 µM,0.742 µM
CC(C)[C@H](C(=O)Nc1ccc(C(=O)NO)cc1)c1ccccc1,360,414,308,5.25 µM,2.35 µM,4.17 µM

SMILES,area under concentration-response curve (CU-ACC2 [1]),area under concentration-response curve (NCI-H295R [2]),area under concentration-response curve (CU-ACC1 [3]),AC50 viability (CU-ACC2 [4]),AC50 viability (NCI-H295R [5]),AC50 viability (CU-ACC1 [6])
NC(=O)/C(=C/n1cnc(-c2cc(C(F)(F)F)cc(C(F)(F)F)c2)n1)c1cncnc1,459,438,322,5.9 µM,9.34 µM,11.8 µM
CNC(=O)c1cc(COc2nnc(Nc3ccc(Cl)cc3)c3ccoc23)ccn1,462,423,419,8.33 µM,5.25 µM,1.86 µM
N=c1c2c(-c3ccccc3)c(-c3ccccc3)n(Cc3ccccc3)c2ncn1[C@H]1CC[C@H](O)CC1,531,491,341,18.6 µM,18.6 µM,18.6 µM
C=CCNC1=C2CC(C)CC(OC)C(O)C(C)/C=C(\C)C(OC(N)=O)C(OC)/C=C/C=C(\C)C(=O)NC(=CC1=O)C2=O (stereo unspecified),480,491,410,1.18 µM,10.5 µM,3.32 µM
Cc1ccc(-c2ccc3ncc4c(c3n2)n(C2CCN(C(=O)[C@H](C)O)CC2)c(=O)n4C)cn1,492,394,363,0.263 µM,0.295 µM,0.263 µM
O=C(NO)c1cnc(N2C[C@H]3C[C@@H]2CN3c2cc(C(F)(F)F)ccn2)nc1,538,488,385,10.5 µM,1.66 µM,7.42 µM
C1=CC2=N/C(=N\c3ccc(OCCN4CCCC4)c(c3)COC/C=C/COCc3cccc2c3)N1,436,387,387,2.63 µM,4.17 µM,3.72 µM
Cc1ccc(NC(=O)Nc2cc(C(F)(F)F)ccc2F)cc1Nc1ccc2c(c1)NC(=O)/C2=C\c1ccc[nH]1,506,476,441,23.5 µM,13.2 µM,14.8 µM
Oc1ccc(-c2ccc(-c3cc(Nc4cccc(CNC5CC5)c4)[nH]n3)cc2)c(O)c1,556,531,498,10.5 µM,18.6 µM,14.8 µM
Cc1ccc(C(N)=O)cc1Nc1nccc(-c2cn(C(C)C)c3cnccc23)n1,530,522,446,8.33 µM,16.6 µM,20.9 µM
Cc1cc2c(C(N)=O)cccc2n1-c1nc2c(c(NCc3ccccc3)n1)COCC2,467,436,306,2.09 µM,2.63 µM,3.32 µM
CC(C)[C@]12O[C@H]1[C@@H]3O[C@@]34[C@@]5(C)CC\C6=C(COC6=O)/[C@@H]5C[C@@H]7O[C@]47[C@@H]2O,242,274,251,0.059 µM,0.295 µM,0.0525 µM
CC/1=C/C[C@]23O[C@@]2(C)CC[C@@H]4[C@H](OC(=O)C4=C)[C@@H]13,509,435,447,16.6 µM,18.6 µM,14.8 µM
CCOC1=CC=CC=C1N\2C(=O)C3=C(C=CC=C3)\N=C2C(C)N4CCN(CC4)C(=O)COC5=CC=C(Cl)C=C5 (stereo unspecified),509,448,373,2.95 µM,5.9 µM,0.934 µM
O=C(/C=C/c1ccc2ccc(C(F)(F)F)cc2n1)c1ccncc1,439,402,365,2.95 µM,3.72 µM,3.72 µM
C[S+](=O)([O-])N1CCN(Cc2cc3nc(-c4cccc5[nH]ncc45)nc(N4CCOCC4)c3s2)CC1,402,406,420,16.6 µM,0.661 µM,0.934 µM
C[C@H]1COCCN1c1cc(C2([S+](=O)([O-])C3CC3)CC2)nc(-c2ccc(NC(=S)NCCO)cc2)n1,394,366,325,0.525 µM,0.661 µM,0.295 µM
Cc1nc(Nc2ncc(C(=O)Nc3c(C)cccc3Cl)s2)cc(N2CCN(CCO)CC2)n1,461,446,448,23.5 µM,23.5 µM,29.5 µM
CC1(C)CC(=O)c2c(C(F)(F)F)nn(-c3ccc(C(N)=O)c(NC4CCC(OC(=O)CN)CC4)c3)c2C1 (stereo unspecified),426,431,362,0.417 µM,1.05 µM,1.05 µM
N#Cc1c(C2CCNCC2)cc(-c2c(O)cccc2OCC2CC2)nc1N,269,275,291,0.934 µM,1.05 µM,10.5 µM
Cc1c[nH]c2nc(Nc3ccc(N4CCN(C)CC4)c(F)c3)nc(-c3cccc(CC#N)c3)c12,422,472,457,4.17 µM,5.25 µM,6.61 µM
CC(C)c1cc(CNc2nc(Nc3cc(C4CC4)[nH]n3)cc(N3CCN(C)CC3)n2)on1,325,411,429,2.95 µM,5.9 µM,8.33 µM
CNC1CCC(N(Cc2cccc(-c3ccncc3)c2)C(=O)c2sc3ccccc3c2Cl)CC1 (stereo unspecified),448,425,406,7.42 µM,9.34 µM,10.5 µM
Cc1cc(CN2CCN(c3c(Br)cnc4[nH]c(-c5ccc(N6CCN(C)CC6)cc5)nc34)CC2)no1,478,425,459,20.9 µM,26.3 µM,0.934 µM
Cc1ccc(C(=O)Nc2cccc(C(F)(F)F)c2)cc1Nc1nc(-c2cccnc2)nc2c1cnn2C,515,477,440,20.9 µM,18.6 µM,23.5 µM
